{"source": "ChEMBL document CHEMBL3045807", "about": "“Synthesis of novel pyrazolyl tetrazoles as selective COX-2 inhibitors” (Med Chem Res, 2013)", "key": {"[1]": {"test_system": "Rattus norvegicus", "test": "Ulcerogenic activity against fasted albino Rattus norvegicus (rat) assessed as ulcer index at 100 mg/kg, po administered QD for 3 days measured on day 4", "assay_type": "toxicity, organism-based", "set-up": "dose 100 mg/kg, route oral", "details": "in vivo, 72 h"}, "[2]": {"organism": "Ovis aries", "test": "Selectivity ratio of IC50 for Ovis aries (sheep) COX2 to IC50 for ovine COX1"}, "[3]": {"test_system": "Rattus norvegicus", "test": "Ulcerogenic activity against fasted albino Rattus norvegicus (rat) assessed as ulcer index at 50 mg/kg, po administered QD for 3 days measured on day 4", "assay_type": "toxicity, organism-based", "set-up": "dose 50 mg/kg, route oral", "details": "in vivo, 72 h"}, "[4]": {"test_system": "Rattus norvegicus", "test": "Anti-inflammatory activity in albino Rattus norvegicus (rat) assessed as inhibition of carrageenan-induced paw edema at 20 mg/kg, po administered 1 hr prior to carrageenan-challenge measured at 3 hr relative to control", "assay_type": "functional"}, "[5]": {"test_system": "Rattus norvegicus", "test": "Anti-inflammatory activity in albino Rattus norvegicus (rat) assessed as carrageenan-induced paw edema volume at 20 mg/kg, po administered 1 hr prior to carrageenan-challenge measured at 1 hr (reference value: 3.75 +/- 0.01 ml)", "assay_type": "functional"}, "[6]": {"test_system": "Rattus norvegicus", "test": "Anti-inflammatory activity in albino Rattus norvegicus (rat) assessed as carrageenan-induced paw edema volume at 20 mg/kg, po administered 1 hr prior to carrageenan-challenge measured at 0.5 hr (reference value: 2.5 +/- 0.02 ml)", "assay_type": "functional"}, "[7]": {"test_system": "Rattus norvegicus", "test": "Anti-inflammatory activity in albino Rattus norvegicus (rat) assessed as carrageenan-induced paw edema volume at 20 mg/kg, po administered 1 hr prior to carrageenan-challenge measured at 2 hr (reference value: 4.25 +/- 0.07 ml)", "assay_type": "functional"}}}
{"smiles": "COc1ccc(-c2nn(-c3ccccc3)cc2-c2nn[nH]n2)cc1", "values": [{"measurement": "UI", "setting": "[1]", "result": 14.22}]}
{"smiles": "Clc1ccc(-c2nn(-c3ccccc3)cc2-c2nn[nH]n2)cc1", "values": [{"measurement": "UI", "setting": "[1]", "result": 13.9}]}
{"smiles": "Cc1ccc(-c2cc(C(F)(F)F)nn2-c2ccc(S(N)(=O)=O)cc2)cc1", "note": "[CELECOXIB]", "values": [{"measurement": "Ratio IC50", "setting": "[2]", "result": 0.02}, {"measurement": "UI", "setting": "[3]", "result": 12.51}]}
{"smiles": "O=C([O-])Cc1ccccc1Nc1c(Cl)cccc1Cl.[Na+]", "note": "[DICLOFENAC SODIUM]", "values": [{"measurement": "inhibition in vivo at 20 mg/kg", "setting": "[4]", "result": 88, "unit": "%"}, {"measurement": "Activity", "setting": "[5]", "result": 1.15, "unit": "mL"}, {"measurement": "Activity", "setting": "[6]", "result": 1.67, "unit": "mL"}, {"measurement": "UI", "setting": "[3]", "result": 17.02}, {"measurement": "Activity", "setting": "[7]", "result": 0.25, "unit": "mL"}]}
